We go through eleven compounds from ChEMBL document CHEMBL1201862, “PubChem BioAssay data set” (2004).

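Exposure lasted 48 hours, with cells grown in 96-well plates and compounds tested at five concentrations. At the GI50, growth is halved.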 Active and inactive are the calls of the source. No stated cut-off is given here; in the data, active = GI50 up to about 1.1 µM and inactive = higher.

Assay in all cases: growth of human tumour cells (NCI), 48 h
The subject of experiment [1] is SW-620.
Experiment [2] relates to OVCAR-5.
The test system of experiment [3] is HOP-62.
Experiment [4] concerns TK-10.
The test system of experiment [5] is A549.
In experiment [6] the test system is SF-268.
Experiment [7] deals with K562.
Experiment [8] relates to SF-539.
For experiment [9], the system named is DMS-273.
Experiment [10] deals with UACC-257.
The test system of experiment [11] is HT-29.
The subject of experiment [12] is IGROV-1.
The subject of experiment [13] is ACHN.
For experiment [14], the system named is KM12.
In experiment [15] the test system is COLO 205.
Experiment [16] has as its system RXF 393.
Experiment [17] deals with HCC 2998.
In experiment [18] the test system is MDA-N.
Experiment [19] concerns OVCAR-3.
The test system of experiment [20] is M19-MEL.

Consider `COc1ccc(/C=C2\C(=O)Nc3ccccc32)cc1OC`, for which the GI50 is 45.1 µM (inactive) in experiment [1]; > 100 µM (inactive) in experiment [2]; > 100 µM (inactive) in [3]; > 100 µM (inactive) in experiment [4]; > 100 µM (inactive) in experiment [5]; > 100 µM (inactive) in [6]. Moreover, the GI50 in experiment [7] was 44.7 µM (inactive); in experiment [8], 40.6 µM (inactive); in experiment [9] it was 64.7 µM (inactive); in experiment [10], > 100 µM (inactive); in experiment [11], > 100 µM (inactive); in [12], > 100 µM (inactive). The GI50 was > 100 µM (inactive) in experiment [13], 85.7 µM (inactive) in experiment [14], > 100 µM (inactive) in experiment [15] and > 100 µM (inactive) in experiment [16].

Turning to `CC(C)(C)OC(=O)c1ccc(NCc2cc(O)ccc2O)cc1`, the GI50 was 3.36 µM (inactive) in experiment [1]; 6.58 µM (inactive) in experiment [2]; 8.97 µM (inactive) in experiment [3]; 2.13 µM (inactive) in experiment [4]; 7.4 µM (inactive) in experiment [5]; 3.44 µM (inactive) in experiment [6]. In addition, the GI50 in experiment [7] was 2.03 µM (inactive); in experiment [8] it was 1.22 µM (inactive); in experiment [10], 3.78 µM (inactive); in experiment [17] it was 7.36 µM (inactive); in experiment [11] it was 13.5 µM (inactive); in [12] it was 1.77 µM (inactive). Besides, the GI50 in [13] is 1.73 µM (inactive); in experiment [18], 3.31 µM (inactive); in experiment [14] it was 2.93 µM (inactive); in experiment [15] it was 2.08 µM (inactive); in experiment [19] it was 1.04 µM (active); in [16], 1.36 µM (inactive).

On to `COC1=C(C)C(=O)c2c(c(COC(N)=O)c3n2CC(OC(C)=O)C3OC(C)=O)C1=O` (stereo not given), for which the GI50 in experiment [1] is 0.0206 µM (active); in experiment [2], 0.267 µM (active); in [3], 0.126 µM (active); in experiment [4], 0.388 µM (active); in experiment [5] it was 0.136 µM (active); in experiment [6] it was 0.0766 µM (active). The GI50 in experiment [7] was 0.0191 µM (active); in [8], 0.0239 µM (active); in [10], 0.115 µM (active); in [17], 0.111 µM (active); in [11], 0.036 µM (active); in experiment [12] it was 0.0785 µM (active). Also, the GI50 in [13] is < 0.01 µM (active); in experiment [18] it was 0.126 µM (active); in [14], 0.228 µM (active); in experiment [15], 0.116 µM (active); in [19] it was 0.09 µM (active); in experiment [16], 0.152 µM (active).

On to `COc1ccc(C(=C(C#N)C#N)c2ccc(OC)cc2)cc1`, for which the GI50 in experiment [1], in experiment [2], in experiment [3], in experiment [4], in experiment [5] and in experiment [6] was > 100 µM (inactive) each time. For the same compound, the GI50 in [7], in [8], in [9], in [10], in [17] and in [11] was > 100 µM (inactive) throughout. Besides, the GI50 in experiment [12], in [13], in experiment [14], in experiment [15], in [19] and in experiment [16] was > 100 µM (inactive) each time.

As to `O=C(N/C(=C\c1ccc(Cl)cc1)c1nc2ccccc2[nH]1)c1ccccc1`, the GI50 in [1] was 27.4 µM (inactive); in experiment [2] it was 37.2 µM (inactive); in experiment [4] it was 30.3 µM (inactive); in [5], 25.4 µM (inactive); in experiment [6] it was 16.3 µM (inactive); in experiment [7], 15.1 µM (inactive). In addition, the GI50 in [8] was 16.7 µM (inactive); in experiment [9], 21.1 µM (inactive); in [10] it was 19.2 µM (inactive); in experiment [20] it was 19 µM (inactive); in [11], 27.8 µM (inactive); in experiment [12] it was 19.4 µM (inactive). Further, the GI50 was 27.5 µM (inactive) in experiment [13]; 16.8 µM (inactive) in experiment [14]; 17.7 µM (inactive) in [15]; 19.6 µM (inactive) in experiment [19]; 18.4 µM (inactive) in experiment [16].

Take `O=[N+]([O-])c1cc2oc(CSc3ccccc3)nc2cc1Cl`: the GI50 is 43.9 µM (inactive) in experiment [1]; 31.3 µM (inactive) in [2]; 41.7 µM (inactive) in [3]; 35.8 µM (inactive) in experiment [4]; 36.9 µM (inactive) in [5]; 58.7 µM (inactive) in experiment [6]. Besides, the GI50 in experiment [7] was 36.2 µM (inactive); in experiment [8], 32.7 µM (inactive); in [10], 28.6 µM (inactive); in [17], 23.5 µM (inactive); in [11], 28.1 µM (inactive); in [12] it was 33.9 µM (inactive). Further, the GI50 was 59.7 µM (inactive) in experiment [13]; 35 µM (inactive) in experiment [18]; 32 µM (inactive) in experiment [14]; 21.7 µM (inactive) in experiment [15]; 30 µM (inactive) in [19]; 26.4 µM (inactive) in experiment [16].

With `CC(CSc1nc2c(c(=N)n1-c1ccccc1)c(=S)n(-c1ccccc1)c(=S)n2-c1ccccc1)CN(C)C` (stereo not given), the GI50 in [1] is 1.79 µM (inactive); in [2] it was 13.6 µM (inactive); in experiment [3], 1.88 µM (inactive); in experiment [4], 1.69 µM (inactive); in [5] it was 1.82 µM (inactive); in experiment [6], 1.71 µM (inactive). Besides, the GI50 was 1.07 µM (active) in experiment [7]; 3.05 µM (inactive) in experiment [8]; 1.79 µM (inactive) in experiment [10]; 1.32 µM (inactive) in experiment [17]; 1.95 µM (inactive) in [11]; 1.4 µM (inactive) in experiment [12]. The GI50 was 1.76 µM (inactive) in experiment [13]; 1.91 µM (inactive) in experiment [18]; 2.25 µM (inactive) in experiment [14]; 1.83 µM (inactive) in [15]; 1.71 µM (inactive) in experiment [19]; 1.59 µM (inactive) in experiment [16].

On to `CCOC(=O)C1=C(N2CCCC2)NC(=O)CC1=O`, for which the GI50 in experiment [1], in experiment [2], in [3], in [4], in experiment [5] and in [6] was > 100 µM (inactive) each time. The GI50 in experiment [7], in [8], in experiment [10], in experiment [17], in [11] and in [12] was > 100 µM (inactive) throughout. Moreover, the GI50 in experiment [13], in [18], in experiment [14], in experiment [15], in experiment [19] and in [16] was > 100 µM (inactive) in each case.

With `CCOC(=O)C#Cc1ccc(C#CC(=O)OCC)cc1`, the GI50 in experiment [1] was 3.15 µM (inactive); in experiment [2] it was 11.8 µM (inactive); in [3], 3.81 µM (inactive); in [4], 2.9 µM (inactive); in experiment [5], 3.75 µM (inactive); in experiment [6] it was 3.88 µM (inactive). Besides, the GI50 in experiment [7] is 2 µM (inactive); in [8], 10.6 µM (inactive); in [10], 22.1 µM (inactive); in experiment [17] it was 6.46 µM (inactive); in [11] it was 1.99 µM (inactive); in [12] it was 1.72 µM (inactive). Moreover, the GI50 in experiment [13] is 3.45 µM (inactive); in [18] it was 1.2 µM (inactive); in experiment [14], 2.76 µM (inactive); in experiment [15], 6.21 µM (inactive); in experiment [19], 2.77 µM (inactive); in experiment [16] it was 2.62 µM (inactive).

Take `O=C(c1ccc(Cl)cc1)N(C(=S)OCCOc1ccccc1)c1ccccc1`: the GI50 in experiment [1] was 19.1 µM (inactive); in [2], 17 µM (inactive); in [3], 23 µM (inactive); in experiment [4], 29.4 µM (inactive); in [5], 16.3 µM (inactive); in experiment [6], 25.1 µM (inactive). The GI50 in experiment [7] was 30.4 µM (inactive); in experiment [8] it was 18.9 µM (inactive); in experiment [10], 18.7 µM (inactive); in [17], 19.5 µM (inactive); in [11], 17.6 µM (inactive); in experiment [12], 16.9 µM (inactive). In addition, the GI50 in [13] is 20.3 µM (inactive); in experiment [18] it was 16.6 µM (inactive); in experiment [14] it was 19.1 µM (inactive); in [15], 19.9 µM (inactive); in [19], 17.2 µM (inactive); in experiment [16], 18.6 µM (inactive).

On to `C=C1OC(c2ccccc2NC)=NC12CCCCC2`, for which the GI50 in [1], in experiment [2], in experiment [3], in experiment [4], in experiment [5] and in [6] was > 100 µM (inactive) each time. The GI50 in [7], in [8], in experiment [10], in [17], in [11] and in experiment [12] was > 100 µM (inactive) each time. Further, the GI50 in experiment [13], in experiment [18], in experiment [14], in [15], in [19] and in experiment [16] was > 100 µM (inactive) in each case.
